According to patent US11643691B2, “Predictive biomarkers for cancer immunotherapy and methods of using same” (Duke University, priority 2018, dated 2023):

Experiments:
CD4+FoxP3+ Treg cells = experiment: In vitro Treg cell assay (conditioned DCs with naive CD4+ T cells); type: cell-based, mice; settings: for DC-mediated Treg cell differentiation in vitro: treated DCs co-cultured with naive CD4+ T cells
Experimental: (§1) Dendritic Cell Conditioning: DCs were treated with Wnt3a (100 ng/mL), Wnt5a (200 ng/mL), LPS (1 μg/mL), 1-MT (1 mM), 2DG (1 mM), or ETO (100 μM), 2-DG(2-deoxy-d-glucose, 1 mM), Oligomycin (1 μM), succinylacetone (250 μM), or vehicle control either for 24 or 48 hrs prior to their use in both in vitro and in vivo experiments.
Treg Cell Assays: For in vivo Treg cell assays, DCs (C57, H-2b) were pre-treated for 48 hours and delivered by intradermal injection into the footpad of Foxp3-mRFP mice. Draining inguinal and popliteal lymph nodes were resected 5 days later and analyzed for CD4+Foxp3+ Treg cells. For in vitro Treg cell assays, DCs (Balb/c, H-2d) were pre-treated for either 24 or 48 hrs, and re-plated at a 1:3 DC:T-cell ratio with purified allogeneic naive Foxp3-mRFP(H-2b) CD44loCD62LhiCD4+ Tcells. These co-cultures were incubated for 6 days and quantitated for CD4+FoxP3+ Treg cells by flow cytometry.

[1] = tested on: CD8+ T cell proliferation; experiment: T cell proliferation assay (CellTrace Violet dilution, OT-1 splenocytes with conditioned DCs); type: cell-based, mice; settings: DCs pre-treated, LPS stimulated
Experimental: T Cell Proliferation Assay: Splenocytes of OT-1 mice (H-2b) were isolated and stained with CellTrace Violet (ThermoFisher). Preconditioned DCs were loaded with ovalbumin peptide SIINFEKL, and co-cultured at a DC:splenocyte ratio of 40,000:120,000 cells for 72 hrs. CD8+ T cell proliferation was measured by the dilution of Cell Trace Violet dye by flow cytometry.

DCs [2] = experiment: Extracellular acidification rate (ECAR), Seahorse XFe24 flux analysis of DCs; type: cell-based, Murine
Experimental: as §1
(§2) Cellular Energy Metabolism Analysis: DC energy metabolism was measured using the XFe24 extracellular flux analyzer (Seahorse Bioscience), with the glycolysis stress test kit and the mitochondrial stress test kit as previously described (Everts et al., 2014, Zhao and Klimecki, 2015). For experiments involving LPS injection, DCs were plated in XFe24 plates (200,000/well in 500p1) and treated with LPS for 48 hours prior to XF analysis. DCs were washed and analyzed in XF media (RPMI without sodium bicarbonate, 10 mM glucose, 1% FBS, 2 mM L-glutamine). ECAR was analyzed in real-time with or without LPS stimulation. For experiments involving BrafV600EPten−/− cell line-derived conditioned media (CM), collected CM was concentrated and desalted with an Amicon Ultra 30K filter according to manufacturer's recommendations (Milipore). Final concentrate was further washed with XF media 3 times, added to DCs immediately prior to OCR analysis. For standard ECAR analysis, XF media (without glucose) was used to wash cells prior to the assay. A final concentration of 10 mM glucose, 1 μM oligomycin, 50 mM 2-DG(sigma) were injected through XFe24 port A-C. For standard OCR analysis, XF media (with 10 mM glucose) was used to wash cells, a final concentration of 1 μM oligomycin, 1.5 μM FCCP (fluoro-carbonyl cyanide phenylhydrazone), 100 nM rotenone, and 1 μM of antimycin-A (Sigma) were injected through XFe24 port A-C.

[3] = tested on: syngeneic BRAF^V600EPTEN^−/− melanomas; experiment: Syngeneic melanoma study with NLRP3i and anti-PD-1 ab; type: in vivo
Experimental: (A) Treatment of syngeneic BRAF^V600EPTEN^−/− melanomas with IgG isotype control ab (200 μg ip every 3 days), NLRP3i (MCC950 10 μg ip every 3 days), anti-PD-1 ab (200 μg ip every 3 days), or both NLRP3i and anti-PD-1 ab combination therapy (n=8). (B) Gr-MDSC flow cytometry analysis of resected BRAF^V600EPTEN^−/− melanomas following treatment with IgG isotype control ab, NLRP3i, anti-PD-1 ab, or both NLRP3i and anti-PD-1 ab combination therapy (n=4). top, representative flow cytometry dot plot. (C) CD8^+ T cell flow cytometry analysis of resected BRAF^V600EPTEN^−/− melanomas following treatment with IgG isotype control ab, NLRP3i, anti-PD-1 ab, or both NLRP3i and anti-PD-1 ab combination therapy (n=4). All data is mean±SEM. *P<0.05.
As depicted in FIG. 21A, NLRP3 inhibition can be combined with a […] (e.g. PD-1 inhibitor) to augment the anti-tumor effect of the PD-1 inhibitor therapy.

DCs [4] = experiment: Oxygen consumption rate (OCR) / OXPHOS, Seahorse XFe24 flux analysis of murine DCs; type: cell-based; settings: DCs pre-treated
Experimental: as §1
as §2, with “A final concentration of 10 mM glucose, 1 μM oligomycin, 50 mM 2-DG(sigma) were injected through XFe24 port A-C. For standard OCR analysis, XF media (with 10 mM glucose) was used to wash cells, a final concentration of 1 μM oligomycin, 1.5 μM FCCP (fluoro-carbonyl cyanide phenylhydrazone), 100 nM rotenone, and 1 μM of antimycin-A (Sigma) were injected through XFe24 port A-C.” left out

DCs [5] = experiment: PpIX flow cytometry analysis and hemin colorimetric assay; type: cell-based, Murine
Experimental: IDO enzymatic assay and Hemin assay: DC IDO enzyme activity was measured by the conversion of L-tryptophan to L-kynurenine in conditioned media by HPLC (Pallotta et al., 2011). Intracellular hemin was measured using a colorimetric assay kit (BioVision).
PpIX Analysis: DCs were terminally incubated in the presence of 1 mM δ-aminolevulinic acid (ALA) for 4 hrs. Intracellular PpIX was analyzed by flow cytometry as previously described (Hryhorenko et al., 1998).

DCs [6] = experiment: qRT-PCR / qPCR array / immunoblot gene expression in DCs; type: cell-based, Murine
Experimental: Dendritic Cell Conditioning: DCs were treated with Wnt3a (100 ng/mL), Wnt5a (200 ng/mL), LPS (1 μg/mL), 1-MT (1 mM), 2DG (1 mM), or ETO (100 μM), 2-DG(2-deoxy-d-glucose, 1 mM), Oligomycin (1 μM), succinylacetone (250 μM), […]
Antibodies, Immunoprecipitation, and Immunoblot Analysis: Primary antibodies including CPT1A (Cell signaling), PPAR-γ (Santa Cruz Biotechnology), β-catenin, β-actin (Millipore), p-AMPK(T172)/AMPK (Cell signaling), p-AKT(T308)/Akt (Cell Signaling) were used at 1:1000. Secondary antibodies including goat anti-rabbit IgG-HRP (Millipore) and goat anti-mouse IgG-HRP (Millipore) were used at 1:5000. Cells were lysed in Laemmli sample buffer after treatment and subjected to SDS-polyacrylamide gel electrophoresis and immunoblot analysis. For immunoprecipitation, cells were lysed in radio immunoprecipitation assay (RIPA) buffer [10 mM sodium phosphate (pH 8.0), 150 mM NaCl, 1% Triton X-100, 1% sodium deoxycholate, and 0.1% SDS in the presence of 1 mM DTT, 1 mM phenylmethylsulfonylfluoride, and a protease inhibitor cocktail (Sigma)], precleared with protein A beads, and then incubated with 1 μg of antibody against β-catenin or isotype control IgG with protein A-agarose beads on a rotator overnight at 4° C. After 3 washes with RIPA buffer, immunoprecipitated complexes were eluted in sample buffer by boiling and subjected to immunoblot analysis. Immunoblots were visualized by chemiluminescence substrate (ThermoFisher) and imaged by a ChemiDoc XRSplus system (BioRad).
RNA Isolation, RT-qPCR, qPCR Array: Total RNA was isolated by RNeasy Plus Mini Kit(Qiagen). RNA(500 ng) were used in cDNA Synthesis (iScript, BioRad). Quantification of mRNA for genes involved in PPARγ signaling was performed using Mouse PrimePCR PPAR Array according to the manufacturer's protocol (BioRad). Real-time PCR was performed using an ABI7500 Real-Time PCR system (Life Technologies). Data analysis utilized the PrimePCR Analysis Software (BioRad). Conventional qPCR was performed using validated primers, and SsoAdvanced Universal SYBR Green Super mix (BioRad) or Taqman probes (Applied Biosystems) for heme synthesis enzymes.

O=CC[C@@H](O)[C@H](O)[C@H](O)CO [2-DG, 2-Deoxy-D-glucose, reference compound]
DC-mediated Treg cell differentiation in vitro (CD4+FoxP3+ Treg cells): enhanced Treg cell differentiation in vitro | LPS-induced DC-mediated antigen-specific T cell proliferation [1]: suppresses LPS-induced DC-mediated antigen-specific T cell proliferation

NC(=O)c1ncn([C@@H]2O[C@H](CO)[C@@H](O)[C@H]2O)c1N [AICAR, reference compound]
LPS-induced glycolytic surge (ECAR) (DCs [2]; DCs pre-treated): antagonize the glycolytic surge required for DC maturation

CC(C)(O)c1coc(S(=O)(=O)NC(=O)Nc2c3c(cc4c2CCC4)CCC3)c1 [MCC950]
efficacy of anti-PD-1 ab immunotherapy ([3]; NLRP3i added to anti-PD-1 ab): Enhances the Efficacy of Anti-PD-1 Ab Immunotherapy | Gr-MDSC recruitment (Ly6G+ Gr-MDSCs) ([3]; flow cytometry of resected melanomas): Suppresses Gr-MDSC Recruitment

Oc1nc(-c2ccc(C(F)(F)F)cc2)nc2c1CSCC2 [XAV939, reference compound]
glycolysis in DCs (ECAR) (DCs [2]): promoted glycolysis in DCs

CC[C@H]1/C=C/C=C/C[C@@H](C)[C@H](O)[C@@](C)(O)C(=O)[C@@H](C)[C@H](O)[C@@H](C)C(=O)[C@@H](C)[C@H](O)[C@@H](C)/C=C/C(=O)O[C@@H]2[C@H](C)[C@H](CC1)O[C@]1(CC[C@H](C)[C@H](C[C@@H](C)O)O1)[C@H]2C [oligomycin, Oligomycin]
DC-mediated Treg cell differentiation in vitro (CD4+FoxP3+ Treg cells): eliminated these Treg cell populations

CC(=O)CC(=O)CCC(=O)O [succinylacetone, 4,6-Dioxoheptanoic acid]
ability of Wnt5a-conditioned DCs to drive Treg cell differentiation in vitro (CD4+FoxP3+ Treg cells; Wnt5a plus inhibitor): significantly abrogated the ability of Wnt5a-stimulated DCs to promote Treg cell generation

Wnt3a
DC-mediated Treg cell differentiation in vitro (CD4+FoxP3+ Treg cells): failed to condition DCs to promote Treg cell differentiation | glycolysis in DCs (ECAR) (DCs [2]): no changes | OXPHOS in DCs (OCR) (DCs [4]): no changes | DC concentrations of PpIX and hemin (DCs [5]): failed to enhance PpIX synthesis in DCs | expression of Alas1 and further enzymes of PpIX synthesis (DCs [6]; qRT-PCR): not | PPAR-γ (Pparg) and CPT1A (Cpt1a) expression (DCs [6]; real-time qPCR and immunoblot, murine and human DCs for rWnt5a): failed to induce expression of both PPAR-γ and CPT1A in DCs
